Measurements from US4803199A, “Pharmaceutically useful heterocyclic and carbocyclic acid esters and amides of alkylene bridged piperidines” (priority 1987, dated 1989).

Tests used:
[1] = test system: M receptors for serotonin; conditions: isolated rabbit vagus nerve; cited from earlier work
serotonin M receptor = molecular target: T1, serotonin M receptor (Oryctolagus cuniculus, UniProt A0A5F9C9J3); test: inhibition of the effect of serotonin on the isolated rabbit heart; conditions: rabbit heart test, antagonism of serotonin; read-out: pA2 value (converted)
T1 construct: isolated rabbit heart; from tissue; host or cells: isolated rabbit heart
T1 sequence (A0A5F9C9J3 1-494): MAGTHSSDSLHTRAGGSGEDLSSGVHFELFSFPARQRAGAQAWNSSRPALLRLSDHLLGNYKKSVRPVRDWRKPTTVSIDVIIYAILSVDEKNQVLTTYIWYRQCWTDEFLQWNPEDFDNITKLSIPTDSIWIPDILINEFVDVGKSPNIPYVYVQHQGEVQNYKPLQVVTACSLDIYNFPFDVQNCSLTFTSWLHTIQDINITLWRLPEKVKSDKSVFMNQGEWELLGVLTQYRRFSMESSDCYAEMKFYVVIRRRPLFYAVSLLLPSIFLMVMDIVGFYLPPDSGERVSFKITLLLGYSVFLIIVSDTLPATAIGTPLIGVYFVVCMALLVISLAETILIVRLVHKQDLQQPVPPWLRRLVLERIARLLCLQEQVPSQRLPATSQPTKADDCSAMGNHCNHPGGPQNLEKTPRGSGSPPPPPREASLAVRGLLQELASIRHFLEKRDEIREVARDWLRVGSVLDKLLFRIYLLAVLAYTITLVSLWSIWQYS
Text: The serotonin M receptor antagonist activity is also indicated by inhibiting the effect of serotonin on the isolated rabbit heart according to the method of J. R. Fozard and A. T. Moborak Ali, European Journal of Pharmacology, (1978) 49, 109-112 at concentrations of 10^-11 to 10^-5 M of the compound of the invention. pD'2 or pA2 values may be calculated in the conventional manner.

M receptors = conditions: blister base on forearm of human volunteers; cited from earlier work

Row | Compound | block of the action of serotonin on C fibre action potential amplitude [1] | Kb (serotonin M receptor) | further results
1 | CCN(CC)C(=O)[C@@H]1C=C2c3cccc4[nH]c(Br)c(c34)C[C@H]2N(C)C1 [BOL-148] | not blocked |  | 
2 | CC[C@@H](CO)NC(=O)[C@@H]1C=C2c3cccc4c3c(cn4C)C[C@H]2N(C)C1 [methysergide] | not blocked |  | 
3 | CCN(CC)CCNC(=O)c1cc(Cl)c(N)cc1OC [metoclopramide] |  | 79.4 nM | 
4 | CCN(CC)C(=O)[C@@H]1C=C2c3cccc4[nH]cc(c34)C[C@H]2N(C)C1 [lysergic acid diethylamide] |  |  | inhibition of the algesic action of serotonin (M receptors): not inhibited
5 | COc1cc(N(C)C)ccc1C(=O)O[C@@H]1C[C@H]2CC[C@@H](C1)N2Cc1ccccc1 [Example C-2] |  | 0.01 nM | 
6 | CSc1ccc2c(c1)C(N1CCN(C)CC1)Cc1ccccc1S2 (stereo not drawn) [metitepine] | not blocked |  | 
